Columns and labels:
Assay type in all cases: in vivo, human
[1] = tested on: VE cadherin-positive mononuclear cells; test: VE cadherin-positive mononuclear cells in peripheral blood of lower limb DVT patients, flow cytometry; settings: before administration 0.44 ± 0.70, diluted solution 10 ml/body/day femoral artery puncture, 14 days
Source text: The subjects consisted of 14 male and 6 female lower limb DVT patients with the unilateral limb suffer from the illness, aged from 59 to 76 years old (average age: 67.2 years old). The purpose of the clinical test was explained to all subjects and their consent was obtained before conducting the clinical test.
The first solution was a mixed solution made of sodium chlorite with the concentration of 7.47% and sodium chloride with the concentration of 1.59% with deionized water; the second solution was made of citric acid with the concentration of 16.7% with deionized water. Same volume of solutions were taken out from different vessels with different volumes and mixed up. […]
Five ml of peripheral blood was collected from the median cubital vein of the forearm of each patient using low molecular weight heparin anticoagulant before administration (before initial administration) and on day 7 and 14 after administration, and the collected blood was immediately stored at 4° C. and measured within 6 hours after collection. […]
VE Cadherin-positive mononuclear cells were isolated by immunofluorescent stain using flow cytometry. […] Next, VE cadherin-positive mononuclear cells were isolated and counted by flow cytometry. The ratio (%) of VE cadherin-positive mononuclear cells among the mononuclear cells was calculated according to the following formula. […]

alopecia areata = test: Alopecia areata patients, topical solution with dimethyl sulfoxide (Example 4)
Protocol: The first solution was a mixed solution made of sodium chlorite with the concentration of 7.47% and sodium chloride with the concentration of 1.59% with deionized water; the second solution was made of citric acid with the concentration of 16.7% with deionized water.
Same volume of solutions were taken out from different vessels with different volumes and put into the suitable glass or plastic cups prepared. Allow the solution to mix for 3-5 minutes and then filter the solution with 0.22 μm filter membrane of double-deck, dimethyl sulfoxide was added in a ratio of 1:1, and then smear solution over the alopecia areata with the swab, waiting for 1-2 hours before cleaning the head, the drug was administered once a day according to the method. The first period lasted for 15-25 days, then the drug was stopped for 2-5 months; The second period lasted for 15-25 days in the light of the situation.
The subjects consisted of 11 male alopecia areata patients and a patient (the patients are between 22-40 years old.) They administered the activating agent of stem cell as volunteers, see Table 12.

[2] = tested on: hip arthritis (osteoarthritis); test: Hip arthritis patients: VAS pain intensity, WOMAC, tolerance (Example 5); settings: 11 hip arthritis patients; for WOMAC mean (±SD): beginning 55.03 (±26.63); for Doctor VAS pain intensity, mean (±SD), 0-100: beginning 55.23 (±9.66); for Patients VAS pain intensity, mean (±SD), 0-100: beginning 58.32 (±8.25)
Protocol: (§1) To smear the solution over the skin of hip arthritis with swab immediately, once a day for consecutive 20 days. Then stop the administration for three months, and then began continuous treatment for 20 days. Clean and disinfect the regions before treatment, conduct local anesthetic 30 minutes before the operation.
(§2) The subjects who joined in the treatment group as volunteers consisted of 11 patients with hip arthritis (5 male, aged from 40 to 70 years old and 6 female, aged from 40 to 65 years old.). Case histories were recorded at the third and the sixth month by collecting personal and data of human body (height, body weight, BMI, blood pressure and heart rate.) Then evaluate the following parameters:
Pain intensity: VAS was used, ranging from 0 (normal) to 100 (maximum intensity), it was conducted by the doctor and patient:
Seriousness of the illness: Womac, namely, self-assessment of hip arthritis that consists of 24 items was used to detect the development and effect of the treatment.

cartilage of hip joint = test: Hip arthritis patients: thickness of cartilage of hip joint by ultrasonic scanning; settings: listed as activating agent of stem cells comprising a chlorine dioxide; for Medical cartilage thickness mean(±SD): before administration 0.51 (±0.07); for Lateral cartilage thickness mean(±SD): before administration 0.61 (±0.09)
Protocol: as §1, §2
Thickness of cartilage of hip joint: measured by ultrasonic scanning at the core, the center and the lateral.

localized psoriasis = test: Localized psoriasis patients, cure and recurrence vs cream control (Example 8)
Source text: The subjects consisted of 86 patients with localized psoriasis aged from 28 to 68 years old, among which 43 patients were randomly assigned to treatment group, and 43 to control group. The disease broke out continuously with more than nine months of course of disease. The purpose of the clinical test was explained to all subjects and their consent was obtained before conducting the clinical test. Treatment group: 29 male patients (74.36%), 10 female (25.64%); age (49.05±14.57); course of disease (12±9) years. Control group: 28 male patients (68.29%), 13 female patients (31.71%); age (47.05±16.25); course of disease (12±10) years.
The solution was immediately smeared over the affected region, once a day for 10 to 15 days, and then stop administration. If it relapsed, reusing it again. […] If it relapsed, reusing it again. The due time was six months.
The criteria for measuring the effect: Take PASI as reference.
A. The areas: grading from 0 to 6 for the four body parts respectively: area: 0=no rash;
B. Severity of the clinic: erythema; infiltration; scale. Grading each characteristics from 0 to 4 point; 0=no; 1=mild; 2=moderate; 3=severe; 4=extremely severe. Calculating the grades of each parts and working out the total points. The criteria of the effect (PASI decrease percentage): recovery score: ≧95%; excellent score both ≧61% and <95%; improved score both ≧20% and <60%; No effect score<20%.
The example was enumeration data and a Chi-square test was conducted to compare the cure rate and recurrence rate of the two groups.

scar = test: Patients with scar, topical solution with dimethyl sulfoxide (Example 13); settings: 20 patients with scar
Source text: The subjects consisted of 20 patients with scar, including 7 male and 13 female (average age: 33 years old.) There are five cases with burn scar, 7 cases with scars resulting from accidental injury, 5 cases with surgical scar, 3 cases with scar from skin disease. The average course of disease is about 3 years.
Then the solution was immediately smeared over the scar, once a day for 10-15 days consecutively then stops administration. The second administration began 1-2 months after drug withdrawal of the first administration, once a day for consecutive 5-10 days.
To observe the effects a month after first administration and second administration. The effects were measured according to pain, stiffness and hyperpigmentation around.
specific criteria: obvious pain (+++), moderate pain (++), mild pain (+) no pain (−). stiffness of scar: can't sunken with hard pressing, (+++) can sunken with moderate pressing, (++), complete depression with mild pressing (+). Same character with normal skin (−). hyperpigmentation around: >2 cm, (+++), 1˜2 cm (++), <1 cm (+), 0 (−)
Measurement of clinical effect: excellent: no pain, and the stiffness is the same to normal skin with no hyperpigmentation around. effective: the indicators of pain, stiffness and hyperpigmentation are (+)˜(++); ineffective: one of the indicators of pain, stiffness and hyperpigmentation is (+++).

[3] = after 6 months, 43 patients per group
[4] = follow-up average 6 months, 35 treatment, 32 control patients
[5] = a month after first administration
[6] = a month after second administration

[O][Cl+][O-] [chlorine dioxide solution, chlorine dioxide]
VE Cadherin-Positive Mononuclear Cells (ratio among mononuclear cells, mean±SD) ([1]; Day 7 after administration, n=20): 1.5 ± 1.11 % | VE Cadherin-Positive Mononuclear Cells (ratio among mononuclear cells, mean±SD) ([1]; Day 14 after administration, n=15): 1.91 ± 1.65 % | time until new hair equably grew, second period of administration (alopecia areata; course of disease more than 12 months, 7 patients): equably grow 3-5 days. | time until new hair grew along the alopecia areata area, first period of administration (alopecia areata; course of disease more than 12 months, 7 patients, NaClO2 7.47% + citric acid 16.7% 1:1, DMSO 1:1, smeared once a day): 3-5 days after | time until new hair grew, second period of administration (alopecia areata; course of disease within 12 months, 5 patients): 3-5 days after | time until new hair grew, first period of administration (alopecia areata; course of disease within 12 months, 5 patients, NaClO2 7.47% + citric acid 16.7% 1:1, DMSO 1:1, smeared once a day 15-25 days): 3-5 days after | hair fell off, second period of administration (alopecia areata; course of disease within 12 months, 5 patients, second period 15-25 days after 2-5 months off): About 50% of hair fell | time until pain and itch during administration disappeared completely ([2]; topical with DMSO): about an hour | tolerance ([2]; topical with DMSO): without local or systemic anaphylactic reaction | WOMAC mean (±SD) ([2]; sixth month, topical with DMSO): 6.54 (±5.86) | Doctor VAS pain intensity, mean (±SD), 0-100 ([2]; sixth month, topical with DMSO): 7.11 (±6.93) | Patients VAS pain intensity, mean (±SD), 0-100 ([2]; sixth month, topical with DMSO): 6.32 (±6.53) | WOMAC mean (±SD) ([2]; third month, topical with DMSO): 20.11 (±22.53) | Doctor VAS pain intensity, mean (±SD), 0-100 ([2]; third month, topical with DMSO): 20.03 (±7.32) | Patients VAS pain intensity, mean (±SD), 0-100 ([2]; third month, NaClO2 8%/NaCl 2% + citric acid 15% 1:1, DMSO 1:1, smeared once a day 20 days, three months off, 20 days): 18.24 (±7.25) | Medical cartilage thickness mean(±SD) (cartilage of hip joint; sixth month): 0.66 (±0.16) mm | Lateral cartilage thickness mean(±SD) (cartilage of hip joint; sixth month): 0.73 (±0.11) mm | Central cartilage thickness mean (±SD) (cartilage of hip joint; sixth month, before administration 0.73 (±0.09)): 0.89 (±0.09) mm | Central cartilage thickness, percentage increase (cartilage of hip joint; sixth month): 12.7% | Lateral cartilage thickness, percentage increase (cartilage of hip joint; sixth month): 8.9% | Medical cartilage thickness, percentage increase (cartilage of hip joint; sixth month): 11.9% | Medical cartilage thickness mean(±SD) (cartilage of hip joint; third month, ultrasound, 11 hip arthritis patients, topical with DMSO): 0.59 (±0.08) mm | Lateral cartilage thickness mean(±SD) (cartilage of hip joint; third month): 0.67 (±0.10) mm | Central cartilage thickness, percentage increase (cartilage of hip joint; third month): 8.2% | Lateral cartilage thickness, percentage increase (cartilage of hip joint; third month): 9.8% | Medical cartilage thickness, percentage increase (cartilage of hip joint; third month): 15.6% | No. effective patients (localized psoriasis; [3]): 0 (0) ^ | No. ineffective patients (localized psoriasis; [3]): 0 (0) | effective patients percentage (localized psoriasis; [3]): 0 (0) ^ % | improvement Percentage (localized psoriasis; [3]): 4.6% | ineffective patients percentage (localized psoriasis; [3]): 0 (0) % | No. Cure (localized psoriasis; after 6 months, 43 patients per group, smeared once a day 10 to 15 days, repeated on relapse, at most three treatments, test solution NaClO2 10%/NaCl 2.5% + citric acid 22% 1:1, PASI-based): 41 | Cure Percentage (localized psoriasis; after 6 months, 43 patients per group, topical once a day 10 to 15 days, repeated on relapse, P<0.01 between groups): 95.3% | No. non recurrence patients (localized psoriasis; [4]): 33 | non recurrence patients percentage (localized psoriasis; [4]): 94.3% | No. recurrence patients (localized psoriasis; follow-up average 6 months, 35 treatment, 32 control patients followed): 2 | recurrence patients percentage (recurrence rate) (localized psoriasis; follow-up average 6 months, 35 treatment, 32 control patients, P<0.01 between groups): 5.7% | ineffective (%) (scar; [5]): 25% | ineffective (No.) (scar; [5]): 5 | total efficiency (%) (scar; [5]): 30% | total efficiency (No.) (scar; [5]): 6 | Efficiency rate (No.) (scar; a month after first administration, NaClO2 10%/NaCl 2.5% + citric acid 20% 1:1, DMSO 1:1, smeared once a day 10-15 days): 9 | Efficiency rate (%) (scar; a month after first administration, topical with DMSO): 45% | Efficiency rate (No.) (scar; a month after second administration (once a day 5-10 days, 1-2 months after the first)): 15 | Efficiency rate (%) (scar; [6]): 75% | ineffective (No.) (scar; [6]): 0 | total efficiency (%) (scar; [6]): 25% | total efficiency (No.) (scar; [6]): 5

Source: patent US20150335678A1, “METHOD OF ACTIVATING STEM CELLS IN AN ANIMAL AND THE USE OF CHLORINE DIOXIDE FOR PREPARING MEDICINES FOR ACTIVATING STEM CELLS IN AN ANIMAL” (priority 2012, published 2015)
